Assay results from article PMC12040169 (PLOS Biology, 2025).

Experiment: in vitro
Settings: human, hela cells, % viability

Structure (SMILES) | viability at 28.5 h, 10 µM [%]
COCCN1CCOC2(CCN(C(=O)c3ccc4ccccc4c3)CC2)C1c1ccccc1O (stereo not drawn) [CBK116232] | 107
O=C(O)C1CCCCC1C(=O)Nc1ccc(S(=O)(=O)N2CCCCC2)cc1 (stereo not drawn) [CBK267950] | 109
CS(=O)(=O)N(Cc1ccc(Cl)cc1)c1ccc(C(=O)Nc2cccnc2)cc1 [CBK263334] | 95.3
CCOc1ccc(-c2cncc(NCCc3c[nH]c4ccccc34)n2)cc1 [CBK065876] | 93
C=C(C)CNC(=O)c1ccc(C)nc1N1CCN(C(=O)c2ccco2)CC1 [CBK076401] | 94.8
O=C(O)c1ccc(Nc2nc3ccccc3nc2NS(=O)(=O)c2ccc(Cl)cc2)cc1 [CBK296072] | 98.5
CC1CCCCN1C(=O)CCn1c(-c2cccnc2)cc2cccnc21 (stereo not drawn) [CBK282692] | 97.1
O=C(O)C(=O)c1cn(Cc2ccccc2Cl)c2ccccc12 [CBK287035] | 88.8
O=C(O)COc1ccc(N2C(=O)C(O)=C(C(=O)c3ccccc3)C2c2cccc(F)c2)cc1 (stereo not drawn) [CBK287010] | 96.8
O=C(Nc1c(F)cccc1F)n1ccc2c(N3CCNCC3)cccc21 [CBK003745C] | 89.5
COc1ccccc1-c1cccc(CC2(C(=O)NCCc3ccccc3)CCOCC2)c1 [CBK285593] | 93.6
FC(F)(F)c1ccc(N2CCNCC2)nc1OCc1ccccc1COc1ccccc1 [CBK003965A] | 91.9
O=C(c1cccc(Cl)c1)N1CCC(O)(c2cccnc2)CC1 [CBK283553] | 93.2
Nc1nnc(SC2c3cccc4cccc(c34)C2NS(=O)(=O)c2ccc(Cl)cc2)s1 (stereo not drawn) [CBK266373] | 99.7
Cc1ccc(-c2nnc(CNC(=O)C3(c4ccccc4)CC3)o2)s1 [CBK284642] | 95.9
CN(Cc1ccc2ncccc2c1)C(=O)CC1CCN(CCc2ccccc2)CC1 [CBK286261] | 108
O=C(O)CCC(=O)Nc1cccc(C(=O)Nc2cccc(Cl)c2)c1 [CBK296977] | 89.8
COc1ccccc1-c1ccc(CC2(C(=O)NC3CCCCC3)CCOCC2)cc1 [CBK286515] | 98.4
[O-][S+](CC(O)COc1ccc(Cl)cc1)c1ccccn1 (stereo not drawn) [CBK261750] | 99.9
CCCCSc1nnc2nc(C)cc(C)n12 [CBK027588] | 98.2
CC1(C)SC(c2ccc(F)cc2)N[C@H]1C(=O)O (stereo partly drawn) [CBK025917] | 91.4
Nc1nc(Cl)c2ccn([C@H]3C[C@@H](O)[C@@H](CO)O3)c2n1 [CBK201309] | 92.4

Structure (SMILES) | viability at 28.5 h, 10 µM [%]
O=C(CCCOc1ccccc1)N1CCN(c2cccc(Cl)c2)CC1 [CBK304354] | 107
COc1ccc(C(Nc2ccnc(OC)c2C#N)[C@H]2C[C@@H](O)C2)cn1 (stereo partly drawn) [CBK306980] | 84.6
Cc1nc(C(Cc2ccsc2)NC(=O)C(C)(C)N)sc1C (stereo not drawn) [CBK284775] | 93
COc1ccc(Nc2nc(N)nc(CSc3nnc(N)s3)n2)cc1 [CBK266682] | 90.6
COc1ccc(Nc2cn(C)nc2C(=O)O)cc1 [CBK269814] | 103
CC(C)[C@@H](CO)Nc1cncc(-c2ccc(F)cc2F)n1 [CBK065875] | 98.5
CCc1nnc(NC(=O)CSc2nc3c([nH]2)c(=O)n(C)c(=O)n3C)s1 [CBK025840] | 113
CCCc1cc(CNC(=O)c2ccnn2C(C)C)on1 [CBK282047] | 97.4
O=C1CCCC2=C1C(c1ccccc1Cl)n1nnnc1N2 (stereo not drawn) [CBK288151] | 93
Cc1cc([N+](=O)[O-])nn1CCCC(=O)Nc1cccc(O)c1 [CBK268747] | 87.1
CS(=O)(=O)Nc1ccc(CNC(=O)c2ccccc2Nc2cccc(C(F)(F)F)c2)cc1 [CBK161732] | 85.5
CC(C)(C)c1ccnc(N[C@H]2CO[C@H]3[C@@H]2OC[C@@H]3NS(=O)(=O)Cc2ccccc2)n1 [CBK289521] | 91.4
CCn1c(CC2CCN(C(=O)CCN3CCCCO3)CC2)nn(C)c1=O [CBK307217] | 95.4
O=C(NCCO)C1(Cc2ccc(-c3ccccc3)cc2)CCNC1 (stereo not drawn) [CBK283043] | 83.9
Cc1c(C(=O)NCCN2CCCC(C(N)=O)C2)[nH]c2c(F)cccc12 (stereo not drawn) [CBK306877] | 81.7
COc1cccc(C(=O)N2CCC(Cc3ccc(-c4ccccc4)cc3)(C(N)=O)CC2)c1 [CBK285770] | 103
CC(=O)c1ccc(C)cc1OC(=O)C1CCCN(S(C)(=O)=O)C1 (stereo not drawn) [CBK306140] | 115
Cc1ccn2cc(C(=O)NCCSc3nccn3C)nc2c1 [CBK281417] | 104
O=C(O)c1cccc(-n2cc(-c3ccc(F)cc3F)nn2)c1 [CBK112998] | 95.9
CN(C)C(=O)c1cc(-c2ccccc2)cnc1N(C)S(C)(=O)=O [CBK076473] | 105
O[C@H](CNCc1ccccc1)COc1cccc2c1C1CCC2CC1 [CBK000370] | 92.6
CC(=O)N1CCC(C(=O)Nc2cnc(-c3ccc(F)c(Cl)c3)c(-c3cccnc3)n2)CC1 [CBK036719] | 108

Structure (SMILES) | viability at 28.5 h, 10 µM [%]
COc1ccc(NC(=O)[C@@H]2C=CCN2C(=O)C2CC2)cc1 [CBK284277] | 98.2
O=C(c1cccs1)N1CCC(c2onc3c2CCCC3)CC1 [CBK285181] | 93.3
CN(CCCN1CCC(C(=O)NC(c2cccnc2)c2ccc3c(c2)OCO3)CC1)S(C)(=O)=O (stereo not drawn) [CBK148505] | 93.1
COc1ccc(C)c2sc(NC(=O)c3sc(C)nc3C)nc12 [CBK287401] | 74
O=C(Cn1cccn1)NC(Cc1ccsc1)c1nccs1 (stereo not drawn) [CBK284666] | 94
CCc1ccc(NC(=N)Nc2nc(CSc3ncccn3)cc(=O)[nH]2)cc1 [CBK268836] | 88.1
c1ccc(N2CCN(C3CCN(Cc4ccccn4)CC3)CC2)cc1 [CBK264684G] | 110
Cc1ccc2nc(-c3ccncc3)cc(C(=O)Nc3ccc(C(F)(F)F)cc3)c2c1 [CBK267732] | 91.6
Cc1nnnn1-c1cc(NC(=O)NCC2CCCO2)ccc1F (stereo not drawn) [CBK305528] | 105
O=C(c1ccc(-c2ccc(OCC3CCN(c4ncccn4)CC3)cn2)cc1)N1CCOCC1 [CBK173183] | 91.8
CC(CNS(=O)(=O)c1cc(Cl)ccc1Cl)CN(C)C (stereo not drawn) [CBK266808] | 108
COCCNc1nc(-c2ccc3[nH]ccc3c2)ccc1C(=O)N1CCN(C)CC1 [CBK105956] | 92.2
Cc1cc(NS(=O)(=O)c2cccc3cccnc23)n(C)n1 [CBK067242] | 89.1
CCN(CC)C(=O)Cn1nc(C)n2c(cc3sc(C)cc32)c1=O [CBK284064] | 96.1
O=C(CC[C@@H]1CNC(=O)[C@@H]2C[C@H](NC(=O)c3ccco3)CN12)Nc1ccccc1 [CBK289007] | 91.1
O=C(N/N=C/c1cc(Br)c(Br)o1)c1cccc(F)c1 [CBK261688] | 94.2
CN(C)S(=O)(=O)c1ccc(C(=O)Nc2ccccc2O)cc1 [CBK267809] | 94.1
Cc1ccc(S(=O)(=O)Nc2cccc(NC(=O)c3ccco3)c2)cc1C(=O)O [CBK296638] | 105
CC(C)NC(=O)[C@@H](C)C1CC[C@@]2(C)CC[C@H](NC(=O)c3cncnc3)[C@@H](C)[C@@H]2[C@H]1O (stereo partly drawn) [CBK289454] | 103
OC(CSc1ccccc1)CN1CCN(c2nc(-c3ccccc3)ns2)CC1 (stereo not drawn) [CBK074677C] | 110
O=[N+]([O-])c1ccc(Oc2ccccc2F)cc1 [CBK002532] | 93.9
O=C(Nc1nnc(C2=COCCO2)o1)c1ccc(Cl)cc1Cl [CBK287419] | 78

Structure (SMILES) | viability at 28.5 h, 10 µM [%]
Cc1noc(C)c1C[S+]([O-])c1ccc(Br)cc1 (stereo not drawn) [CBK034195] | 95.6
CCc1ccc(-n2cc(-c3ccccn3)nn2)cc1 [CBK113137] | 106
COc1ccc(F)cc1-c1ccc(CC2(C(=O)NC3CCCCC3)CCOCC2)cc1 [CBK285538] | 86.6
CN1CCCCC1CC(=O)Nc1ccc2ncn(C)c2c1 (stereo not drawn) [CBK281747] | 87.6
O=C(O)CC1SC(Nc2cc(C(F)(F)F)cc(C(F)(F)F)c2)=NC1=O (stereo not drawn) [CBK059095] | 89.8
CC1CC(C)CN(CCCNC(=O)c2cc(C(C)C)nn2C)C1 (stereo not drawn) [CBK282665] | 106
Cc1ccc2cc3c(nc2c1)OCC(=O)N(Cc1ccco1)C3 [CBK283539] | 92.9
Cc1nc2c(OCc3ccc(F)c(F)c3)cccn2c1N(C)CC1CC1 [CBK147276] | 91.9
Cc1ccc(Nc2nc(N/N=C/c3cccc4ccccc34)nc(N3CCC(Cc4ccccc4)CC3)n2)cc1 [CBK262101] | 94.7
CCCCSc1nnc(-c2ccc(Br)cc2)o1 [CBK027012] | 117
COc1cccc2ncn(CCc3csc(N)n3)c(=O)c12 [CBK307679] | 81.9
CCCS(=O)(=O)Nc1nccnc1N1CCN(c2ccc3c(c2)OCO3)CC1 [CBK048824] | 93.6
O=C(NN1C(=O)c2ccccc2C1=O)c1cc(C(=O)NN2C(=O)c3ccccc3C2=O)cc(N2C(=O)c3ccccc3C2=O)c1 [CBK262100] | 88.2
Clc1cccc(-c2cncc(N3CCN(Cc4ccccn4)CC3)n2)c1 [CBK037282] | 99.5
CC(C)c1ccc(NC(=O)O[C@@H]2CO[C@H]3[C@@H]2OC[C@@H]3NC(=O)C2CC2)cc1 [CBK289471] | 99
COc1cc(/C=C(/C#N)c2nc3ccccc3[nH]2)ccc1OCc1ccc(C(=O)O)o1 [CBK267839] | 90.7
COc1cccc(NC(=O)NCCc2ccncc2)c1 [CBK270022] | 90.3
CCn1nc(C2CCCC2)nc1-c1cnc2ccnn2c1C [CBK306626] | 87.1
COc1ccc(CC(=O)N(C)CCN2CCCCC2)cc1C [CBK282728] | 99.3
Cc1ccc(C(F)(F)F)cc1NS(=O)(=O)c1cc(OC2CCNCC2)c2occc2c1 [CBK082763C] | 90.1
O=C1Cc2cc3ccccc3cc2C2(CCN(C(=O)c3ccccc3C(=O)O)CC2)N1 [CBK047216] | 94.8
